In patent publication US12325697B2 (Nimbus Clio, Inc., priority 2021, dated 2025) one finds IC50 data, which are given here for 22 compounds.

For test [1], the target named is Recombinant human c-Cbl (aa 47-435) (Homo sapiens (Human), UniProt P22681). As to the kind of experiment: c-Cbl Biochemical Assay (TR-FRET). The procedure, abridged:
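Biotinylated c-Cbl (6 nM) preincubated 30 min RT with compound, then reacted 60-90 min with Src-Zap70 (2.5-10 nM) and 0.5 mM ATP, pH 7.0 HEPES buffer. Stopped with EDTA; 100 nM Bodipy-ubiquitinated UBE2D2 binding read by TR-FRET after 60 min; IC50 from 4-parameter fit.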

For test [2], the target named is Recombinant human Cbl-b (aa 36-427) (Homo sapiens (Human), UniProt Q13191). As to the kind of experiment: Cbl-b Biochemical Assay (TR-FRET). As to conditions: read-out: TR-FRET hCbl-b IC50. The procedure, abridged:
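Two-step TR-FRET: 6 nM biotinylated Cbl-b preincubated 30-60 min with compound, then 60 min at RT with 1-2.5 nM Src-Zap70 and 0.5 mM ATP in HEPES pH 7.0 buffer, 1% DMSO. Stopped with 5 mM EDTA plus 100 nM UBE2D2-Ub-FL-BODIPY and 1 nM streptavidin-Tb, 60 min; 520 nm signal; IC50 from 4-parameter fit.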

Chain of Recombinant human c-Cbl (aa 47-435) (P22681 47-435): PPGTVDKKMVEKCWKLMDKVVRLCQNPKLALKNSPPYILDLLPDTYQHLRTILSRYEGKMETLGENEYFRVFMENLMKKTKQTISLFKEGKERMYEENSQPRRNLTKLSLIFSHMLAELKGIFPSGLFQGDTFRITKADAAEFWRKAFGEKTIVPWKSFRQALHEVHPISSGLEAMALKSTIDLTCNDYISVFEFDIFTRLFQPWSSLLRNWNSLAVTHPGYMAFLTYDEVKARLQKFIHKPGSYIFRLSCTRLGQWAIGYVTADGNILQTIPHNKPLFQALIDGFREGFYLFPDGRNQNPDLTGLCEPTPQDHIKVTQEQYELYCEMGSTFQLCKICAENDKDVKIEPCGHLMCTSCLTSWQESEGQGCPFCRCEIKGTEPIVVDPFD
Chain of Recombinant human Cbl-b (aa 36-427) (Q13191 36-427): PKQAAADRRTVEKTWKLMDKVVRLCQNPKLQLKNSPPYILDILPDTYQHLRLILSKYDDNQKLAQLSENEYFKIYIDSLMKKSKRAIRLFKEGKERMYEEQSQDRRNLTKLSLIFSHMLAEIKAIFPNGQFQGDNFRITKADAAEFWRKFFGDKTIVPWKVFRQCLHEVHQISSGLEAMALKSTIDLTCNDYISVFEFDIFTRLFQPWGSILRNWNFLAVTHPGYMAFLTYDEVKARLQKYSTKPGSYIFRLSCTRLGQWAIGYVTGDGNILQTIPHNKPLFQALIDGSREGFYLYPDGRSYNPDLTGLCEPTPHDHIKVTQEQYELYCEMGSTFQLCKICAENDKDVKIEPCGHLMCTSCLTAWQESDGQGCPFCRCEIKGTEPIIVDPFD

The term IC50 denotes the concentration that gives 50% inhibition. In the case of `CN(Cc1cc2c(c(C(F)(F)F)c1)CN(c1cc(-c3c(-c4nncn4C)cnn3C)cc(C3CC3)n1)C2=O)CC1(O)CCC1` [AJW-1, 2-{6-Cyclopropyl-4-[2-methyl-4-(4-methyl-1,2,4-triazol-3-yl)pyrazol-3-yl]pyridin-2-yl}-6-({[(1-hydroxycyclobutyl)methyl](methyl)amino}methyl)-4-(trifluoromethyl)-3H-isoindol-1-one], the IC50 in test [1] and in test [2] was not above 200 nM each time.

Take `Cn1cnnc1-c1cc(C#N)ccc1-c1cc(C2CC2)nc(N2Cc3ccc(CNCC4(F)CCC4)cc3C2=O)c1` [AJX-1, 4-{2-Cyclopropyl-6-[6-({[(1-fluorocyclobutyl)methyl]amino}methyl)-1-oxo-3H-isoindol-2-yl]pyridin-4-yl}-3-(4-methyl-1,2,4-triazol-3-yl)benzonitrile]: the half-inhibitory concentration (IC50) in test [1] and in test [2] was not above 200 nM each time.

Regarding `CN(Cc1ccc2c(c1)C(=O)N(c1cc(-c3ccc(C#N)cc3-c3nncn3C)cc(C3CC3)n1)C2)CC1CCCC1` [AJY-1, 4-[2-(6-{1[(Cyclopentylmethyl)(methyl)amino]methyl}-1-oxo-3H-isoindol-2-yl)-6-cyclopropylpyridin-4-yl]-3-(4-methyl-1,2,4-triazol-3-yl)benzonitrile], the 50% inhibitory concentration (IC50) in test [1] and in test [2] was not above 200 nM each time.

As to `CC(NCC1CCC1)c1ccc2c(c1)C(=O)N(c1cc(-c3ccc(C#N)cc3-c3nncn3C)cc(C3CC3)n1)C2` (centres unmarked) [AJZ-1, 4-(2-(6-(1-((Cyclobutylmethyl)amino)ethyl)-1-oxoisoindolin-2-yl)-6-cyclopropylpyridin-4-yl)-3-(4-methyl-4H-1,2,4-triazol-3-yl)benzonitrile], the IC50 in test [1] and in test [2] was not above 200 nM in each case.

Consider `C[C@@H](NCC1CCC1)c1ccc2c(c1)C(=O)N(c1cc(-c3ccc(C#N)cc3-c3nncn3C)cc(C3CC3)n1)C2` [AKA-1, (R)-4-(2-(6-(1-((Cyclobutylmethyl)amino)ethyl)-1-oxoisoindolin-2-yl)-6-cyclopropylpyridin-4-yl)-3-(4-methyl-4H-1,2,4-triazol-3-yl)benzonitrile], for which the IC50 in test [1] and in test [2] was not above 200 nM in each case.

As to `C[C@H](NCC1CCC1)c1ccc2c(c1)C(=O)N(c1cc(-c3ccc(C#N)cc3-c3nncn3C)cc(C3CC3)n1)C2` [AKB-1, (S)-4-(2-(6-(1-((Cyclobutylmethyl)amino)ethyl)-1-oxoisoindolin-2-yl)-6-cyclopropylpyridin-4-yl)-3-(4-methyl-4H-1,2,4-triazol-3-yl)benzonitrile], the IC50 in test [1] and in test [2] was not above 200 nM throughout.

As for `Cn1cnnc1-c1cc(C#N)ccc1-c1cc(C2CC2)nc(N2Cc3ccc(CNCC4CC(F)(F)C4)cc3C2=O)c1` [AKC-2, 4-{2-Cyclopropyl-6-[6-({[(3,3-difluorocyclobutyl)methyl]amino}methyl)-1-oxo-3H-isoindol-2-yl]pyridin-4-yl}-3-(4-methyl-1,2,4-triazol-3-yl)benzonitrile], the IC50 in test [1] and in test [2] was not above 200 nM each time.

In the case of `Cn1cnnc1-c1cc(C#N)ccc1-c1cc(C2CC2)nc(N2Cc3ccc(CNCC45CC(C4)C5)cc3C2=O)c1` [AKD-2, 4-(2-{6-[({Bicyclo[1.1.1]pentan-1-ylmethyl}amino)methyl]-1-oxo-3H-isoindol-2-yl}-6-cyclopropylpyridin-4-yl)-3-(4-methyl-1,2,4-triazol-3-yl)benzonitrile], the IC50 in test [1] and in test [2] was not above 200 nM in each case.

In the case of `COC1(CNCc2ccc3c(c2)C(=O)N(c2cc(-c4ccc(C#N)cc4-c4nncn4C)cc(C4CC4)n2)C3)CCCC1` [AKE-2, 4-{2-Cyclopropyl-6-[6-({[(1-methoxycyclopentyl)methyl]amino}methyl)-1-oxo-3H-isoindol-2-yl]pyridin-4-yl}-3-(4-methyl-1,2,4-triazol-3-yl)benzonitrile], the IC50 in test [1] and in test [2] was not above 200 nM throughout.

As for `Cn1cnnc1-c1cc(C#N)ccc1-c1cc(C2CC2)nc(N2Cc3ccc(CNCC4(C#N)CCC4)cc3C2=O)c1` [AKF-2, 4-{2-[6-({[(1-Cyanocyclobutyl)methyl]amino}methyl)-1-oxo-3H-isoindol-2-yl]-6-cyclopropylpyridin-4-yl}-3-(4-methyl-1,2,4-triazol-3-yl)benzonitrile], the IC50 in test [1] and in test [2] was not above 200 nM throughout.

As to `COC[C@H](C)NCc1cc(F)c2c(c1)C(=O)N(c1cc(-c3ccc(C#N)cc3-c3nncn3C)cc(C3CC3)n1)C2` [AKG-1, 4-{2-Cyclopropyl-6-[4-fluoro-6-({[(2S)-1-methoxypropan-2-yl]amino}methyl)-1-oxo-3H-isoindol-2-yl]pyridin-4-yl}-3-(4-methyl-1,2,4-triazol-3-yl)benzonitrile], the IC50 in test [1] and in test [2] was not above 200 nM in each case.

Take `COC[C@@H](C)NCc1cc(F)c2c(c1)C(=O)N(c1cc(-c3ccc(C#N)cc3-c3nncn3C)cc(C3CC3)n1)C2` [AKH-1, 4-{2-Cyclopropyl-6-[4-fluoro-6-({[(2R)-1-methoxypropan-2-yl]amino}methyl)-1-oxo-3H-isoindol-2-yl]pyridin-4-yl}-3-(4-methyl-1,2,4-triazol-3-yl)benzonitrile]: the IC50 in test [1] and in test [2] was not above 200 nM throughout.

`Cn1cnnc1-c1cnn(C)c1-c1cc(C2CC2)nc(N2Cc3c(cc(CO)cc3C(F)(F)F)C2=O)c1` [AKI-1, 2-{6-Cyclopropyl-4-[2-methyl-4-(4-methyl-1,2,4-triazol-3-yl)pyrazol-3-yl]pyridin-2-yl}-6-(hydroxymethyl)-4-(trifluoromethyl)-3H-isoindol-1-one]: the IC50 in test [1] and in test [2] was not above 200 nM in each case.

Consider `CCOc1cc(-c2ccc(C#N)cc2-c2nncn2C)cc(N2Cc3ccc(CNCC4(F)CCC4)cc3C2=O)n1` [AKJ-1, 4-{2-Ethoxy-6-[6-({[(1-fluorocyclobutyl)methyl]amino}methyl)-1-oxo-3H-isoindol-2-yl]pyridin-4-yl}-3-(4-methyl-1,2,4-triazol-3-yl)benzonitrile], for which the IC50 in test [1] and in test [2] was not above 200 nM each time.

`Cn1cnnc1-c1cc(C#N)ccc1-c1cc(C2CC2)nc(N2Cc3c(F)cc(CNCC4(F)CCC4)cc3C2=O)c1` [AKK-1, 4-{2-Cyclopropyl-6-[4-fluoro-6-({[(1-fluorocyclobutyl)methyl]amino}methyl)-1-oxo-3H-isoindol-2-yl]pyridin-4-yl}-3-(4-methyl-1,2,4-triazol-3-yl)benzonitrile]: the IC50 in test [1] and in test [2] was not above 200 nM throughout.

`COc1cc2c(cc1CO)C(=O)N(c1cc(-c3ccc(C#N)cc3-c3nncn3C)cc(C3CC3)n1)C2` [AKL-2, 4-{2-Cyclopropyl-6-[6-(hydroxymethyl)-5-methoxy-1-oxo-3H-isoindol-2-yl]pyridin-4-yl}-3-(4-methyl-1,2,4-triazol-3-yl)benzonitrile]: the IC50 in test [1] and in test [2] was not above 200 nM each time.

For `COc1cc2c(cc1CNCC1CCC1)C(=O)N(c1cc(-c3ccc(C#N)cc3-c3nncn3C)cc(C3CC3)n1)C2` [AKM-2, 4-[2-(6-{[(Cyclobutylmethyl)amino]methyl}-5-methoxy-1-oxo-3H-isoindol-2-yl)-6-cyclopropylpyridin-4-yl]-3-(4-methyl-1,2,4-triazol-3-yl)benzonitrile], the IC50 in test [1] and in test [2] was 1000 to 10000 nM in each case.

For `Cn1cnnc1-c1cc(C#N)ccc1-c1cc(C2CC2)nc(N2Cc3cc(Cl)c(CO)cc3C2=O)c1` [AKN-12, 4-{2-[5-Chloro-6-(hydroxymethyl)-1-oxo-3H-isoindol-2-yl]-6-cyclopropylpyridin-4-yl}-3-(4-methyl-1,2,4-triazol-3-yl)benzonitrile], the IC50 in test [1] and in test [2] was not above 200 nM throughout.

For `Cn1cnnc1-c1cc(C#N)ccc1-c1cc(C2CC2)nc(N2Cc3cc(Cl)c(CNCC4CCCC4)cc3C2=O)c1` [AKO-2, 4-(2-(5-Chloro-6-(((cyclopentylmethyl)amino)methyl)-1-oxoisoindolin-2-yl)-6-cyclopropylpyridin-4-yl)-3-(4-methyl-4H-1,2,4-triazol-3-yl)benzonitrile], the IC50 in test [1] and in test [2] was not above 200 nM in each case.

Regarding `CN(Cc1ccc2c(c1)C(=O)N(c1cc(-c3ccc(C#N)cc3-c3nncn3C)cc(C3CC3)n1)C2)CC1(O)CCC1` [AKP-1, 4-{2-Cyclopropyl-6-[6-({[(1-hydroxycyclobutyl)methyl](methyl)amino}methyl)-1-oxo-3H-isoindol-2-yl]pyridin-4-yl}-3-(4-methyl-1,2,4-triazol-3-yl)benzonitrile], the IC50 in test [1] and in test [2] was not above 200 nM in each case.

As to `Cn1cnnc1-c1cc(C#N)ccc1-c1cc(C2CC2)nc(N2Cc3c(F)cc(CN4CC5CC5C4)cc3C2=O)c1` (centres unmarked) [AKQ-2, 4-[2-(6-{3-Azabicyclo[3.1.0]hexan-3-ylmethyl}-4-fluoro-1-oxo-3H-isoindol-2-yl)-6-cyclopropylpyridin-4-yl]-3-(4-methyl-1,2,4-triazol-3-yl)benzonitrile], the IC50 in test [1] and in test [2] was not above 200 nM throughout.

As to `Cn1cnnc1-c1cc(C#N)ccc1-c1cc(C2CC2)nc(N2Cc3c(F)cc(CN4C[C@@H]5C[C@H]4CO5)cc3C2=O)c1` [AKR-3, 4-(2-Cyclopropyl-6-{4-fluoro-6-[(1S,4S)-2-oxa-5-azabicyclo[2.2.1]heptan-5-ylmethyl]-1-oxo-3H-isoindol-2-yl}pyridin-4-yl)-3-(4-methyl-1,2,4-triazol-3-yl)benzonitrile], the IC50 in test [1] and in test [2] was not above 200 nM throughout.
